How the values were obtained:
[1] = tested on: HL-60, human proleukemia cells; experiment: Cell-MTS proliferation assay, HL-60; type: cell-based; conditions: Cell-MTS, 168 hr, class symbols A/B/C
Procedure: (§1) The Cell-MTS assay is a 7-day plate-based colorimetric assay which quantifies the amount of newly generated NADH in the presence or absence of test compound. The NADH level is used for the quantification of cancer cell proliferation.
(§2) Established cancer cell lines with a variety of driving mutations were obtained from American Type Culture Collection (ATCC) and routinely passaged according to ATCC protocols. For routine assay, these cells were seeded at densities which enabled ˜90% confluence after 7 days of culture. Raji, human Burkitts lymphoma cells, (cMYC) were seeded at 15,000 cells per 96-well. HL-60, human proleukemia cells, (NRAS, p16, p53, c-Myc amplified) were seeded at 5,000 cells per 96-well. NCI-H460, human non-small cell lung cancer cells, (KRAS, PIK3CA, STLK11, p16) were seeded at 3,000 cells per 96-well. 24 hr after plating, cells received an 11-point dilution of test compound with final concentration ranges from 100 μM to 2.0 nM. […] At the end of this incubation period, 80 μL of media is removed and 20 μL of CellTiter 96® AQueous Non-Radioactive Cell Proliferation Assay soln (Promega) was added. The cells were incubated until the OD490 was >0.6. IC50 values were calculated using the IDBS XLfit software package and include background subtracted OD490 values and normalization to DMSO controls. Cellular proliferation IC50 values were uploaded and archived using the Chem Biography Platform.

BRD4(BD1) = BRD4(BD1) (Homo sapiens (Human), UniProt O60885); experiment: In vitro enzyme inhibition assay (BRD4 AlphaScreen); type: binding
How it was run: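 His-tagged BRD4 tested by AlphaScreen for binding of biotinylated H4K5/8/12/16-tetraacetyl peptide. After 20 min at room temperature, streptavidin donor and nickel chelate acceptor beads added (5 μg/mL final each). IC50 determined.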

[2] = tested on: Raji, human Burkitts lymphoma cells; experiment: Cell-MTS proliferation assay, Raji; type: cell-based; conditions: 168 hr
Procedure: as §1, §2

[3] = Homo sapiens, Raji, Cell-MTS, class symbols A/B/C
[4] = in vitro enzyme inhibition assay
[5] = Homo sapiens, Cell-MTS proliferation, Raji cells

CCNS(=O)(=O)c1cccc(-c2cn(C)c(=O)c3cc(F)ccc23)c1 [Example 59, N-ethyl-3-(7-fluoro-2-methyl-1-oxoisoquinolin-4-yl) benzenesulfonamide]
IC50 [1]: 500 to 5000 nM | IC50 (BRD4(BD1); class symbols A/B/C): 500 to 5000 nM | IC50 ([2]; Cell-MTS, class symbols A/B/C): 500 to 5000 nM

Cn1cc(-c2cccc(NS(C)(=O)=O)c2)ccc1=O [Example 94, N-[3-(1-methyl-6-oxopyridin-3-yl)phenyl]methanesulfonamide]
IC50 ([1]; Homo sapiens, HL-60): > 5000 nM | IC50 (BRD4(BD1); class symbols A/B/C): 500 to 5000 nM | IC50 [2, 3]: < 500 nM

Cn1cc(-c2cc(F)cc(NS(C)(=O)=O)c2)c2ccccc2c1=O [Example 36, N-[3-fluoro-5-(2-methyl-1-oxoisoquinolin-4-yl)phenyl] methanesulfonamide]
IC50 ([1]; Homo sapiens, HL-60): 500 to 5000 nM | IC50 (BRD4(BD1); class symbols A/B/C): 500 to 5000 nM | IC50 [2, 3]: 500 to 5000 nM

Cn1cc(-c2cccc(NS(C)(=O)=O)c2)c2ccc(F)cc2c1=O [Example 58, N-[3-(7-fluoro-2-methyl-1-oxoisoquinolin-4-yl)phenyl]methanesulfonamide]
IC50 ([1]; Homo sapiens, HL-60): < 500 nM | IC50 (BRD4(BD1); class symbols A/B/C): < 500 nM | IC50 [2, 3]: 500 to 5000 nM

COc1ccc(-c2cn(C)c(=O)c3ccccc23)cc1S(=O)(=O)NCc1ccccc1 [Example 15, N-benzyl-2-methoxy-5-(2-methyl-1-oxoisoquinolin-4-yl)benzenesulfonamide]
IC50 ([1]; Homo sapiens, HL-60): 500 to 5000 nM | IC50 (BRD4(BD1); class symbols A/B/C): 500 to 5000 nM | IC50 [2, 3]: < 500 nM

Cc1ccc(-c2cn(C)c(=O)c3ccccc23)cc1NS(C)(=O)=O [Example 17, N-[2-methyl-5-(2-methyl-1-oxoisoquinolin-4-yl)phenyl] methanesulfonamide]
IC50 ([1]; Homo sapiens, HL-60): < 500 nM | IC50 (BRD4(BD1); class symbols A/B/C): < 500 nM | IC50 [2, 3]: 500 to 5000 nM

CCNS(=O)(=O)c1cccc(-c2cn(C)c(=O)c3cnccc23)c1 [Example 53, N-ethyl-3-(2-methyl-1-oxo-2,7-naphthyridin-4-yl) benzenesulfonamide]
IC50 [1]: > 5000 nM | IC50 (BRD4(BD1); class symbols A/B/C): 500 to 5000 nM | IC50 ([2]; Cell-MTS, class symbols A/B/C): > 5000 nM

COc1ccc(-c2cn(C)c(=O)c3ccccc23)cc1C(=O)NCc1ccccc1 [Example 18, N-benzyl-2-methoxy-5-(2-methyl-1-oxoisoquinolin-4-yl)benzamide]
IC50 ([1]; Homo sapiens, HL-60): 500 to 5000 nM | IC50 (BRD4(BD1); class symbols A/B/C): 500 to 5000 nM | IC50 [2, 3]: 500 to 5000 nM

Cn1cc(-c2cccc(NS(C)(=O)=O)c2)c2ccncc2c1=O [Example 51, N-[3-(2-methyl-1-oxo-2,7-naphthyridin-4-yl)phenyl]methanesulfonamide]
IC50 ([1]; Homo sapiens, HL-60): 500 to 5000 nM | IC50 (BRD4(BD1); class symbols A/B/C): 500 to 5000 nM | IC50 [2, 3]: > 5000 nM

Cn1cc(-c2cc(NS(C)(=O)=O)cc(C(F)(F)F)c2)c2ccccc2c1=O [Example 40, N-[3-(2-methyl-1-oxoisoquinolin-4-yl)-5-(trifluoromethyl)phenyl] methanesulfonamide]
IC50 ([1]; Homo sapiens, HL-60): 500 to 5000 nM | IC50 (BRD4(BD1); class symbols A/B/C): 500 to 5000 nM | IC50 [2, 3]: 500 to 5000 nM

Cn1cc(-c2ccc(F)c(NS(C)(=O)=O)c2)c2ccccc2c1=O [Example 37, N-[2-fluoro-5-(2-methyl-1-oxoisoquinolin-4-yl)phenyl] methanesulfonamide]
IC50 ([1]; Homo sapiens, HL-60): 500 to 5000 nM | IC50 (BRD4(BD1); class symbols A/B/C): < 500 nM | IC50 [2, 3]: 500 to 5000 nM

COc1ccc(-c2cn(C)c(=O)c3ccccc23)cc1NS(C)(=O)=O [Example 30, N-[2-methoxy-5-(2-methyl-1-oxoisoquinolin-4-yl)phenyl]methanesulfonamide]
IC50 ([1]; Homo sapiens, HL-60): < 500 nM | IC50 (BRD4(BD1); class symbols A/B/C): < 500 nM | IC50 [2, 3]: 500 to 5000 nM

Cn1cc(-c2cccc(S(=O)(=O)N3CCCC3)c2)c2ccccc2c1=O [Example 7, 2-methyl-4-(3-pyrrolidin-1-yl-sulfonylphenyl)isoquinolin-1-one]
IC50 ([1]; Homo sapiens, HL-60): 500 to 5000 nM | IC50 (BRD4(BD1); class symbols A/B/C): 500 to 5000 nM | IC50 [2, 3]: < 500 nM

Cn1cc(-c2cc(NS(C)(=O)=O)c(F)cc2F)c2ccccc2c1=O [Example 35, N-[2,4-difluoro-5-(2-methyl-1-oxoisoquinolin-4-yl)phenyl]methanesulfonamide]
IC50 ([1]; Homo sapiens, HL-60): 500 to 5000 nM | IC50 (BRD4(BD1); class symbols A/B/C): 500 to 5000 nM | IC50 [2, 3]: 500 to 5000 nM

Cn1cc(-c2cccc(S(N)(=O)=O)c2)c2cc(F)ccc2c1=O [Example 48, 3-(6-fluoro-2-methyl-1-oxoisoquinolin-4-yl) benzenesulfonamide]
IC50 [1]: 500 to 5000 nM | IC50 (BRD4(BD1); class symbols A/B/C): 500 to 5000 nM | IC50 ([2]; Cell-MTS, class symbols A/B/C): 500 to 5000 nM

Cn1cc(-c2ccc3c(=O)n(C)cc(-c4cc(NS(C)(=O)=O)c(F)cc4F)c3c2)cn1 [Example 43, N-[2,4-difluoro-5-[2-methyl-6-(1-methylpyrazol-4-yl)-1-oxoisoquinolin-4-yl]phenyl]methane-sulfonamide]
IC50 ([1]; Homo sapiens, HL-60): < 500 nM | IC50 (BRD4(BD1); class symbols A/B/C): < 500 nM | IC50 [2, 3]: < 500 nM

Cn1cc(-c2cccc(S(=O)(=O)NCCO)c2)c2ccccc2c1=O [Example 22, N-(2-hydroxyethyl)-3-(2-methyl-1-oxoisoquinolin-4-yl)benzenesulfonamide]
IC50 ([1]; Homo sapiens, HL-60): 500 to 5000 nM | IC50 (BRD4(BD1); class symbols A/B/C): 500 to 5000 nM | IC50 [2, 3]: 500 to 5000 nM

CCS(=O)(=O)Nc1cccc(-c2cn(C)c(=O)c3cc(F)ccc23)c1 [Example 62, N-[3-(7-fluoro-2-methyl-1-oxoisoquinolin-4-yl)phenyl]ethanesulfonamide]
IC50 ([1]; Homo sapiens, HL-60): < 500 nM | IC50 (BRD4(BD1); class symbols A/B/C): < 500 nM | IC50 [2, 3]: 500 to 5000 nM

CCS(=O)(=O)Nc1cccc(-c2cn(C)c(=O)c3cnccc23)c1 [Example 52, N-[3-(2-methyl-1-oxo-2,7-naphthyridin-4-yl)phenyl] ethanesulfonamide]
IC50 ([1]; Homo sapiens, HL-60): 500 to 5000 nM | IC50 (BRD4(BD1); class symbols A/B/C): 500 to 5000 nM | IC50 [2, 3]: 500 to 5000 nM

CCNS(=O)(=O)c1cccc(-c2cn(C)c(=O)c3ccc(F)cc23)c1 [Example 49, N-ethyl-3-(6-fluoro-2-methyl-1-oxoisoquinolin-4-yl) benzenesulfonamide]
IC50 [1]: 500 to 5000 nM | IC50 ([2]; Cell-MTS, class symbols A/B/C): 500 to 5000 nM

Cc1ccc(NS(C)(=O)=O)cc1-c1cn(C)c(=O)c2ccccc12 [Example 39, N-[4-methyl-3-(2-methyl-1-oxoisoquinolin-4-yl)phenyl]methanesulfonamide]
IC50 ([1]; Homo sapiens, HL-60): < 500 nM | IC50 (BRD4(BD1); class symbols A/B/C): < 500 nM | IC50 [2, 3]: 500 to 5000 nM

Cn1cc(-c2cc(NS(C)(=O)=O)ccc2Cl)c2ccccc2c1=O [Example 38, N-[4-chloro-3-(2-methyl-1-oxoisoquinolin-4-yl)phenyl] methanesulfonamide]
IC50 ([1]; Homo sapiens, HL-60): < 500 nM | IC50 (BRD4(BD1); class symbols A/B/C): < 500 nM | IC50 [2, 3]: 500 to 5000 nM

CN(C(=O)OC(C)(C)C)c1cccc(-c2cn(C)c(=O)c3ccccc23)c1 [Example 31, tert-butyl N-methyl-N-[3-(2-methyl-1-oxoisoquinolin-4-yl)phenyl]carbamate]
IC50 ([1]; Homo sapiens, HL-60): 500 to 5000 nM | IC50 (BRD4(BD1); class symbols A/B/C): 500 to 5000 nM | IC50 [2, 3]: 500 to 5000 nM

Cn1cc(-c2ccc3c(=O)n(C)cc(-c4cc(NS(C)(=O)=O)ccc4F)c3c2)cn1 [Example 41, N-[4-fluoro-3-[2-methyl-6-(1-methylpyrazol-4-yl)-1-oxoisoquinolin-4-yl]phenyl]methanesulfonamide]
IC50 ([1]; Homo sapiens, HL-60): < 500 nM | IC50 (BRD4(BD1); class symbols A/B/C): < 500 nM | IC50 [2, 3]: < 500 nM

Cn1cc(-c2ccc3c(c2)NC(=O)C3)c2ccccc2c1=O [Example 20, 2-methyl-4-(2-oxo-1,3-dihydroindol-6-yl) isoquinolin-1-one]
IC50 ([1]; Homo sapiens, HL-60): < 500 nM | IC50 (BRD4(BD1); class symbols A/B/C): > 5000 nM | IC50 [2, 3]: < 500 nM

Cn1cc(-c2cccc(S(N)(=O)=O)c2)c2ccc(F)cc2c1=O [Example 61, 3-(7-fluoro-2-methhyl-1-oxoisoquinolin-4-yl) benzenesulfonamide]
IC50 ([1]; Homo sapiens, HL-60): 500 to 5000 nM | IC50 [2, 3]: 500 to 5000 nM

Cn1cc(-c2cc(NS(C)(=O)=O)ccc2F)c2ccccc2c1=O [Example 34, N-[4-fluoro-3-(2-methyl-1-oxoisoquinolin-4-yl)phenyl] methanesulfonamide]
IC50 ([1]; Homo sapiens, HL-60): < 500 nM | IC50 (BRD4(BD1); class symbols A/B/C): < 500 nM | IC50 [2, 3]: < 500 nM

Cn1cc(-c2cc(S(C)(=O)=O)ccc2OCC2CC2)c2cc(F)ccc2c1=O [Example 90, 4-[2-(cyclopropylmethoxy)-5-methylsulfonylphenyl]-6-fluoro-2-methylisoquinolin-1-one]
IC50 ([1]; Homo sapiens, HL-60): < 500 nM | IC50 (BRD4(BD1); class symbols A/B/C): < 500 nM | IC50 [2, 3]: < 500 nM

CCC1Cc2cc(S(C)(=O)=O)cc(-c3cn(C)c(=O)c4ccccc34)c2O1 (stereo not drawn) [Example 494, 4-(2-ethyl-5-methylsulfonyl-2,3-dihydro-1-benzofuran-7-yl)-2-methylisoquinolin-1-one]
IC50 (BRD4(BD1); [4]): < 500 nM | IC50 [2, 5]: 500 to 5000 nM

[2H]C([2H])([2H])n1cc(-c2cc(S(=O)(=O)CC)ccc2OCC2CC2)c(C)cc1=O [Example 457, 5-[2-(cyclopropylmethoxy)-5-ethylsulfonylphenyl]-1-(^2H3)methyl-4-methylpyridin-2-one]
IC50 (BRD4(BD1); [4]): < 500 nM | IC50 [2, 5]: < 500 nM

CCS(=O)(=O)c1ccc(OCC2CC2)c(-c2cc(OCC(F)(F)F)c(=O)n(C)c2)c1 [Example 288, 5-[2-(cyclopropylmethoxy)-5-ethylsulfonylphenyl]-1-methyl-3-(2,2,2-trifluoroethoxy)pyridin-2-one]
IC50 (BRD4(BD1); [4]): < 500 nM | IC50 ([2]; Homo sapiens, Raji, Cell-MTS proliferation): 500 to 5000 nM

CCS(=O)(=O)Nc1cc2c(c(-c3cc(C)c(=O)n(C)c3)c1)OC(C1CC1)C2 (stereo not drawn) [Example 496, N-[2-cyclopropyl-7-(1,5-dimethyl-6-oxopyridin-3-yl)-2,3-dihydro-1-benzofuran-5-yl]ethanesulfonamide]
IC50 (BRD4(BD1); [4]): < 500 nM | IC50 [2, 5]: < 500 nM

Reference: US10023592B2, “Bromodomain inhibitors” (Celgene Quanticel Research, Inc., priority 2013, dated 2018)
